Experimental data as given in PubChem BioAssay AID2060489 (Molecular Pharmacology Branch, DTP, NCI, 2025).
Values joined by “and” are separate entries in the source; they are usually repeats but may differ in a detail not shown here. Equal entries are not always repeated. Each block holds one compound with its values, some of them ahead of it.

Tested on: 922993-354-T-J3-PDC complex spheroids, viability
Experiment: Anticancer human tumor 922993-354-T-J3-PDC patient-derived endometrial carcinoma cell line growth inhibition [GQUAD]
Settings: for viability, T/C: stronger effect = lower value
From the text: DNA G-quadruplex Stabilizer Agents in Combinations in Complex Spheroids
A high-throughput screen of multi-cell type tumor spheroids was designed to identify active combinations of DNA G-quadruplex stabilizer agents and targeted small molecules. Complex spheroids include a stromal component modeled by human endothelial cells (HUVEC) and fibroblasts modeled by human mesenchymal stem cells (MSCs). The concentration ranges selected for each drug and investigational agent were based upon clinically achievable concentrations if the clinical Cmax of the agent was known.
Compounds. The drugs and investigational agents: pidnarulex (CX-5461; NSC782164), APTO-253 (NSC789042), BRACO-19 (NSC847499), peposertib (NSC802822), ceralasertib (NSC780249), elimusertib (NSC800525), camonsertib (NSC841442), AZD-1390 (NSC803789), olaparib (NSC753686), talazoparib (NSC767125), ART-558 (NSC835418), sotorasib (NSC818433), MRTX-1133 (NSC836407), SN-38 (NSC673596), topotecan (NSC609699), etoposide (NSC141540), doxorubicin (NSC123127), gemcitabine (NSC613327), 5-fluorouracil (NSC19893), paclitaxel (NSC125973), vemurafenib (NSC761431), panobinostat (NSC761190), R-306465 (JNJ-16241199; NSC773264), adavosertib (NSC754352), TP-3654 (NSC805149), carboplatin (NSC241240), KSQ-4279 (NSC840948), and staurosporine (NSC755774) were obtained from the National Cancer Institute (NCI) Developmental Therapeutics Program Chemical Repository (34). The FDA-approved anticancer drug set is available from the NCI Developmental Therapeutics Program. […] The stock solutions were prepared in dimethyl sulfoxide (DMSO, Sigma-Aldrich, St. Louis, MO, cat. D2650) at 800-fold the tested concentration and stored at -70 degrees C prior to their use. All drugs and investigational agents were tested over a range starting from a high concentration at or near the clinical Cmax and decreasing in half-log increments. If the clinical Cmax for an agent had not been determined, the highest concentration tested was 10 microM.
2.3 Cell Culture. All cells were maintained in an incubator at 37 degrees C and 5% CO2 with 95% humidity. The PDC lines were cultured according to standard operating procedures established by the NCI PDMR. All PDCs were thawed and cultured in Matrigel-coated flasks prepared with a working solution of 1X Ham's F-12 nutrient mix, without supplementation (Invitrogen, cat. 11765054), 100 U/mL penicillin-streptomycin (Invitrogen, cat. 15140122), and 2.5% Matrigel (Corning Inc., cat. 354248) for the first three passages. The 857933-349-R-J2-PDC line was cultured in 6C/Colon 1B media, which includes advanced DMEM/F-12 (Thermo Fisher Scientific, cat. 12634028), 10 mM HEPES (Thermo Fisher Scientific, cat. 15630080), 1X GlutaMAX supplement (Thermo Fisher Scientific, cat. 35050061), 0.1 mg/mL primocin (InvivoGen, cat. ant-pm-2), 10% defined fetal bovine serum, heat inactivated (HyClone Laboratories Inc., cat. SH30070.03HI), 50% L-WRN conditioned media (ATCC, cat. CRL-3276), 1.25 mM N-Acetyl-L-cysteine (Sigma-Aldrich, cat. A9165), 10 mM nicotinamide (Sigma-Aldrich, cat. N0636), 1X B-27 supplement (Thermo Fisher Scientific, cat. 17504044), 1X N-2 supplement (Thermo Fisher Scientific, cat. 17502048), 10 microM Y-27632 dihydrochloride (Tocris Bioscience, cat. 1254), and 50 ng/mL human EGF recombinant protein (Thermo Fisher Scientific, cat. PHG0311). The 485176-168-R4-J1-PDC line was cultured in Panc media, which includes all 6C/Colon 1B media components plus 100 ng/mL human FGF-10 (Thermo Fisher Scientific, cat. 100-26), 500 nM SB-431542 (Selleckchem, cat. S1067), and gastrin (Tocris, cat. 3006).
[…]

[1] = compound alone, run of 03/26/2024
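Further: spheroids exposed to compounds for seven days.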
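Wherever viability, T/C is given: 100% = DMSO vehicle control viability.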

IC50 (curve of compound): > 10 µM
SMILES: C#Cc1c(F)ccc2cc(O)cc(-c3ncc4c(N5CC6CCC(C5)N6)nc(OCC56CCCN5CC(F)C6)nc4c3F)c12 (stereo unspecified)
viability, T/C (compound 0.0316 µM): 84.5% and 92.3% and 99.3%
viability, T/C (compound 0.1 µM): 82.8% and 84% and 92.6%
viability, T/C (compound 0.316 µM): 89.6% and 103% and 84.7%
viability, T/C (compound 1 µM): 92.7% and 82.5% and 106%
viability, T/C (compound 3.16 µM): 76.5% and 96.3% and 94.4%
viability, T/C (compound 10 µM): 96.1% and 82.3% and 91.5%

IC50 (curve of compound): 4.52 µM and 4.95 µM and 6.19 µM
SMILES: C=CCn1c(=O)c2cnc(Nc3ccc(N4CCN(C)CC4)cc3)nc2n1-c1cccc(C(C)(C)O)n1
viability, T/C (compound 0.0316 µM): 79.8% and 93.2% and 78.9%
viability, T/C (compound 0.1 µM): 83.2% and 85.1% and 115%
viability, T/C (compound 0.316 µM): 107% and 109% and 113%
viability, T/C (compound 1 µM): 97.1% and 94.7% and 90.2%
viability, T/C (compound 3.16 µM): 66.1% and 73.2% and 82.1%
viability, T/C (compound 10 µM): 14.4% and 13.4% and 27.5%

IC50 (curve of compound): 6.76 µM and 9.18 µM and > 10 µM
SMILES: CC(=O)O[C@H]1C(=O)[C@@]2(C)[C@H]([C@H](OC(=O)c3ccccc3)[C@]3(O)C[C@H](OC(=O)[C@H](O)[C@@H](NC(=O)c4ccccc4)c4ccccc4)C(C)=C1C3(C)C)[C@]1(OC(C)=O)CO[C@@H]1C[C@@H]2O
viability, T/C (compound 0.0316 µM): 109% and 89.5% and 121%
viability, T/C (compound 0.1 µM): 95% and 93% and 85.9%
viability, T/C (compound 0.316 µM): 84.9% and 103% and 93.4%
viability, T/C (compound 1 µM): 111% and 108% and 102%
viability, T/C (compound 3.16 µM): 75.6% and 78.7% and 84.9%
viability, T/C (compound 10 µM): 36.8% and 47.7% and 50%

IC50 (curve of compound): > 10 µM
SMILES: CC(C)(O)C1CCC(Nc2ccc3ncc(-c4cccc(C(F)(F)F)c4)n3n2)CC1 (stereo unspecified)
viability, T/C (compound 0.0316 µM): 106% and 88.2% and 93.2%
viability, T/C (compound 0.1 µM): 81% and 82.6% and 81.6%
viability, T/C (compound 0.316 µM): 89.6% and 84.6% and 88.7%
viability, T/C (compound 1 µM): 82.9% and 101% and 90.8%
viability, T/C (compound 3.16 µM): 78.8% and 68.7% and 81.9%
viability, T/C (compound 10 µM): 79.6% and 68% and 98.6%

IC50 (curve of compound): 7.09 µM and > 10 µM
SMILES: CCCS(=O)(=O)Nc1ccc(F)c(C(=O)c2c[nH]c3ncc(-c4ccc(Cl)cc4)cc23)c1F
viability, T/C (compound 0.0316 µM): 101% and 91.3% and 97.1%
viability, T/C (compound 0.1 µM): 81% and 90.5% and 83.1%
viability, T/C (compound 0.316 µM): 99.1% and 89.8% and 101%
viability, T/C (compound 1 µM): 87.5% and 81% and 76%
viability, T/C (compound 3.16 µM): 78.5% and 68.7% and 87.7%
viability, T/C (compound 10 µM): 37.7% and 68.9% and 71%

IC50 [1]: > 10 µM
SMILES: CN(C)c1ccc(Nc2c3ccc(NC(=O)CCN4CCCC4)cc3nc3cc(NC(=O)CCN4CCCC4)ccc23)cc1
viability, T/C (compound 0.316 µM): 99.4% [middle of 12 runs]

IC50 (curve of compound): > 10 µM
SMILES: COc1ncnc(C2CC2)c1-c1ncc2cnn(Cc3ccc(-c4nc(C(F)(F)F)cn4C(C)C)cc3)c2n1
viability, T/C (compound 0.0316 µM): 91.6% and 114% and 86.8%
viability, T/C (compound 0.1 µM): 87.8% and 92.6% and 89.9%
viability, T/C (compound 0.316 µM): 101% and 104% and 102%
viability, T/C (compound 1 µM): 87.8% and 99.7% and 99.6%
viability, T/C (compound 3.16 µM): 110% and 85.1% and 69.7%
viability, T/C (compound 10 µM): 95.9% and 87.4% and 81.4%

IC50 (compound alone, run of 03/18/2024): > 10 µM
IC50 [1]: > 10 µM
SMILES: Cc1[nH]c2ccc(F)cc2c1-c1nc2c3cccnc3c3ncccc3c2[nH]1
viability, T/C (compound 10 µM): 106% [middle of 12 runs]

IC50 (curve of compound): 0.381 µM and 0.447 µM and 0.422 µM
SMILES: O=C(NO)c1cnc(N2CCN(S(=O)(=O)c3ccc4ccccc4c3)CC2)nc1
viability, T/C (compound 0.0316 µM): 98.1% and 88.5% and 95.5%
viability, T/C (compound 0.1 µM): 71.3% and 68.2% and 82.4%
viability, T/C (compound 0.316 µM): 56% and 62% and 55.4%
viability, T/C (compound 1 µM): 36.7% and 32.2% and 32%
viability, T/C (compound 3.16 µM): 3.07% and 3.39% and 4.12%
viability, T/C (compound 10 µM): 0.53% (2×) and 0.58%

SMILES: Nc1ccn(C2OC(CO)C(O)C2(F)F)c(=O)n1 (stereo unspecified) + CN(C)c1ccc(Nc2c3ccc(NC(=O)CCN4CCCC4)cc3nc3cc(NC(=O)CCN4CCCC4)ccc23)cc1
IC50 (curve of first compound, second compound 0.0316 µM): < 0.0316 µM
IC50 (curve of first compound, second compound 0.1 µM): < 0.0316 µM
IC50 (curve of first compound, second compound 0.316 µM): < 0.0316 µM
IC50 (curve of first compound, second compound 1 µM): < 0.0316 µM
IC50 (curve of first compound, second compound 3.16 µM): < 0.0316 µM
IC50 (curve of first compound, second compound 10 µM): < 0.0316 µM
viability, T/C (second compound 0.0316 µM, first compound 0.0316 µM): 13.6%
viability, T/C (second compound 0.0316 µM, first compound 0.1 µM): 14.7%
viability, T/C (second compound 0.0316 µM, first compound 0.316 µM): 11.9%
viability, T/C (second compound 0.0316 µM, first compound 1 µM): 16.6%
viability, T/C (second compound 0.0316 µM, first compound 3.16 µM): 10.6%
viability, T/C (second compound 0.0316 µM, first compound 10 µM): 12.7%
viability, T/C (second compound 0.1 µM, first compound 0.0316 µM): 13.4%
viability, T/C (second compound 0.1 µM, first compound 0.1 µM): 13.2%
viability, T/C (second compound 0.1 µM, first compound 0.316 µM): 12.2%
viability, T/C (second compound 0.1 µM, first compound 1 µM): 10.8%
viability, T/C (second compound 0.1 µM, first compound 3.16 µM): 10.4%
viability, T/C (second compound 0.1 µM, first compound 10 µM): 11.9%
viability, T/C (second compound 0.316 µM, first compound 0.0316 µM): 13.9%
viability, T/C (second compound 0.316 µM, first compound 0.1 µM): 9.77%
viability, T/C (second compound 0.316 µM, first compound 0.316 µM): 10.7%
viability, T/C (second compound 0.316 µM, first compound 1 µM): 13.1%
viability, T/C (second compound 0.316 µM, first compound 3.16 µM): 9.83%
viability, T/C (second compound 0.316 µM, first compound 10 µM): 11.2%
viability, T/C (second compound 1 µM, first compound 0.0316 µM): 12.5%
viability, T/C (second compound 1 µM, first compound 0.1 µM): 8.2%
viability, T/C (second compound 1 µM, first compound 0.316 µM): 12%
viability, T/C (second compound 1 µM, first compound 1 µM): 13%
viability, T/C (second compound 1 µM, first compound 3.16 µM): 12%
viability, T/C (second compound 1 µM, first compound 10 µM): 11.8%
viability, T/C (second compound 3.16 µM, first compound 0.0316 µM): 13.8%
viability, T/C (second compound 3.16 µM, first compound 0.1 µM): 11.6%
viability, T/C (second compound 3.16 µM, first compound 0.316 µM): 16.8%
viability, T/C (second compound 3.16 µM, first compound 1 µM): 12.2%
viability, T/C (second compound 3.16 µM, first compound 3.16 µM): 11.3%
viability, T/C (second compound 3.16 µM, first compound 10 µM): 13.3%
viability, T/C (second compound 10 µM, first compound 0.0316 µM): 15.8%
viability, T/C (second compound 10 µM, first compound 0.1 µM): 11.4%
viability, T/C (second compound 10 µM, first compound 0.316 µM): 11.6%
viability, T/C (second compound 10 µM, first compound 1 µM): 14.4%
viability, T/C (second compound 10 µM, first compound 3.16 µM): 11%
viability, T/C (second compound 10 µM, first compound 10 µM): 11.3%
